Data taken from ChEMBL document CHEMBL4828771, “Discovery and Development of a Potent, Selective, and Orally Bioavailable CHK1 Inhibitor Candidate: 5-((4-((3-Amino-3-methylbutyl)amino)-5-(trifluoromethyl)pyrimidin-2-yl)amino)picolinonitrile” (J Med Chem, 2021).
Activity calls are given as the source filed them. The rule behind the calls is not given here.

How the values were obtained:
[1] = target: Calcium/calmodulin-dependent protein kinase type II subunit beta (Homo sapiens) (UniProt Q13554); assay: Inhibition of wild type human CAMK2B (M1 to Q380 residues) expressed in bacterial expression system assessed as protein activity at 0.5 uM relative to control; design: scale not given: the % may be the effect or the level left
Calcium/calmodulin-dependent protein kinase type II subunit beta (Homo sapiens), sequence (Q13554 whole entry, the tested form may be a part): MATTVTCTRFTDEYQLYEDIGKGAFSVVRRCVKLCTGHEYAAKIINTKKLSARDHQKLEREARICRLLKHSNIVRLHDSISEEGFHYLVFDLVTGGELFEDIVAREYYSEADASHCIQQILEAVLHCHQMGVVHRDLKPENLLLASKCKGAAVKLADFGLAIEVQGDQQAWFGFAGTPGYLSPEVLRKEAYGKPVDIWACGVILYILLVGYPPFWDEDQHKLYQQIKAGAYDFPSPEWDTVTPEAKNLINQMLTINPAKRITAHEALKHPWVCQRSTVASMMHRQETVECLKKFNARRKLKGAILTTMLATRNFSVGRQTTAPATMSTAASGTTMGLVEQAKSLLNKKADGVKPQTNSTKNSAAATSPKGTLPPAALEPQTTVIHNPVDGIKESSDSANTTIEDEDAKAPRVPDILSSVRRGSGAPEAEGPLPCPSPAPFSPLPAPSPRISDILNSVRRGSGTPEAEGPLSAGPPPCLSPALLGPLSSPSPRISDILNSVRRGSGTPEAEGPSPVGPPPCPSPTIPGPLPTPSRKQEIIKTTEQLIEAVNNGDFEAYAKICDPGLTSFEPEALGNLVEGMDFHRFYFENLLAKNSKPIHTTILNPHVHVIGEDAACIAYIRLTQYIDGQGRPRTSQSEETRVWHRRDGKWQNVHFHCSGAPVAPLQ

[2] = system: Mus musculus; assay: Induction of S345 phosphorylation in tumor of mouse xenografted with human HT-29 cells at 30 mg/kg, po dosed 5 days/week for 22 days by Western blot analysis; type: functional, organism-based; details: time 22.0 day
[3] = Selectivity ratio of Antiproliferative activity against human A549 cells to Antiproliferative activity against human A549 cells in presence of gemcitabine; type: functional
[4] = MRT (0 to infinity) in ICR mouse at 20 mg/kg, po measured after 0.083 to 48 hrs by LC-MS/MS analysis; type: ADME, organism-based; details: in vivo, time 0.083-48 hrs
[5] = system: MV4-11; assay: Antitumor activity against human MV4-11 cells xenografted in mouse assessed as inhibition of tumor growth at 30 mg/kg, po dosed for 21 days measured twice every week relative to control; type: functional; details: MV4-11, po, 504 h, time 21 day, read-out: TGI
[6] = system: HT-29; assay: Antiproliferative activity against human HT-29 cells incubated for 72 hrs by CCK8 assay; type: functional, cell-based
[7] = target: T1, Serine/threonine-protein kinase Chk1 (Homo sapiens) (UniProt O14757); assay: Inhibition of wild type human CHK1 (M1 to G289 residue) expressed in bacterial expression system assessed as protein activity at 0.5 uM relative to control; design: scale not given: the % may be the effect or the level left
T1 sequence (whole entry): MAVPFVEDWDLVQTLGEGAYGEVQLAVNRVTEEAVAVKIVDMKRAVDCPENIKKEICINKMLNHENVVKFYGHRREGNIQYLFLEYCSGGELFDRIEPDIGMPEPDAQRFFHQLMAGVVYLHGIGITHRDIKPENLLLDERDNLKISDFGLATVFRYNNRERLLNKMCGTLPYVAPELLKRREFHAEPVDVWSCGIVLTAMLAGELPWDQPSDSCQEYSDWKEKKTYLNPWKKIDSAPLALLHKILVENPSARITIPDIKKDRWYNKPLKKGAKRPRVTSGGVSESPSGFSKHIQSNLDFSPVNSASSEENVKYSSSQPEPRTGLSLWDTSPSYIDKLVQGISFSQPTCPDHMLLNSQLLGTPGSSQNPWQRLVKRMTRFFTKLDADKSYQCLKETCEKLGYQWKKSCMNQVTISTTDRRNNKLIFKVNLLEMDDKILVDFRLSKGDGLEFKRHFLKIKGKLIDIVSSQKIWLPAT

[8] = target: T1, Serine/threonine-protein kinase Chk1 (Homo sapiens); assay: Inhibition of CHK1 in human HT-29 cells assessed as […] residue at 1.1 uM incubated for 12 hrs by Western blot analysis; type: cell-based
[9] = target: T1, Serine/threonine-protein kinase Chk1 (Homo sapiens); assay: Inhibition of CHK1 in human MV4-11 cells assessed as increase in phosphorylation at S345 residue incubated for 2 hrs by Western blot analysis; type: cell-based
[10] = system: A549; assay: Antiproliferative activity against human A549 cells incubated for 72 hrs by CCK8 assay; type: functional, cell-based
[11] = target: T1, Serine/threonine-protein kinase Chk1 (Homo sapiens); assay: Inhibition of CHK1 in human MV4-11 cells assessed as reduction in autophosphorylation at S296 residue incubated for 2 hrs by Western blot analysis; type: cell-based
[12] = system: Mus musculus; assay: Downregulation of S296 phosphorylation in tumor of mouse xenografted with human HT-29 cells at 30 mg/kg, po dosed 5 days/week for 22 days by Western blot analysis; type: functional, organism-based; details: time 22.0 day
[13] = target: Calcium/calmodulin-dependent protein kinase type II subunit delta (Homo sapiens) (UniProt Q13557); assay: Inhibition of wild type human CAMK2D (M1 to E329 residues) expressed in bacterial expression system assessed as protein activity at 0.5 uM relative to control; design: scale not given: the % may be the effect or the level left
Calcium/calmodulin-dependent protein kinase type II subunit delta (Homo sapiens), sequence (Q13557 whole entry, the tested form may be a part): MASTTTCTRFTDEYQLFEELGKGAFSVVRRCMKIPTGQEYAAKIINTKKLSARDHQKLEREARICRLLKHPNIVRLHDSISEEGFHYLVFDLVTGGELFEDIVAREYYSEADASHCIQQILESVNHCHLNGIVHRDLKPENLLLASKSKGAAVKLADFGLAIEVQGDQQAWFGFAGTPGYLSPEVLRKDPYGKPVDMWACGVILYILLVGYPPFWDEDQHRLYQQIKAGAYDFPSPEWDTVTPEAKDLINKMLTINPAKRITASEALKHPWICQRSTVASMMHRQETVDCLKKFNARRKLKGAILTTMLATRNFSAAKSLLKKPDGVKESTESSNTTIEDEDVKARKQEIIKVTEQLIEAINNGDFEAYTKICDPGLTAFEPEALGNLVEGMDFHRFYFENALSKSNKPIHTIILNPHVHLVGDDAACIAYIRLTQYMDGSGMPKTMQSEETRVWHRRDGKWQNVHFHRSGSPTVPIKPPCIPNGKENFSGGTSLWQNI

[14] = Tmax in ICR mouse at 20 mg/kg, po measured after 0.083 to 48 hrs by LC-MS/MS analysis; type: ADME, organism-based; details: in vivo, time 0.083-48 hrs
[15] = system: HT-29; assay: Antiproliferative activity against human HT-29 cells incubated for 72 hrs in presence of gemcitabine by CCK8 assay; type: functional, cell-based
[16] = system: RPMI-8226; assay: Antiproliferative activity against human RPMI-8226 cells incubated for 72 hrs in presence of gemcitabine by CCK8 assay; type: functional, cell-based
[17] = system: Mus musculus; assay: Induction of S296 phosphorylation in tumor of mouse xenografted with human HT-29 cells at 30 mg/kg, po dosed 5 days/week for 22 days cotreated with gemcitabine by Western blot analysis; type: functional, organism-based; details: time 22.0 day

With CC(C)(N)CCNc1nc(Nc2ccc(C#N)nc2)ncc1C(F)(F)F the Activity [1] was 18%, the Activity [2] was “Active” and the Ratio [3] was 100. The MRT inf [4] was 14.7 h, the inhibition in vivo at 30 mg/kg [5] was 94.9% and the Activity [6] was “Active”. For the same compound, the Activity [7] was 4%, the Activity [8] was “Active” and the Activity [9] was “Dose-Dependent Effect”. For the same compound, the Activity [10] was “Active”, the inhibition [11] was “Dose-Dependent Effect” and the Activity [12] was “Active”. For the same compound, the Activity [13] was 19%, the Tmax [14] was 4 h and the Activity [15] was “Active”. For the same compound, the Activity [16] was “Active” and the Activity [17] was “Active”.
